These results are taken from patent EP0388528B1, “Carboximidamide derivatives” (KIRIN BEER KABUSHIKI KAISHA, priority 1988, dated 1990).

As usually defined, the IC50 is the concentration that inhibits the measured activity by half. Read a low IC50 as greater potency in that assay.

SMILES strings stand for the structures.

The subject of this assay is isolated rat aortae. As to the kind of experiment: Vasorelaxing effect on the isolated rat aortae (Referential Example 1)-1). To be noted: inhibition of contraction induced by 40 mM KCl. As to the method:
The compounds of the present invention were tested for their physiological activities by measuring the tension of isolated rat aortae isometrically.
Thoracic aortae obtained from male Wistar rats (weighing 250-350 g) were cut into ring segments about 3 mm long. The ring preparation was placed in an organ bath filled with 10 ml of Krebs-Ringer solution that was maintained at 37°C and gassed with 95% O₂ - 5% CO₂.
The preparation in the organ bath was allowed to equilibrate under resting tension of 1 g. After equilibration period, the solution in the organ bath was replaced with an isotonic solution containing 40 mM KCl to contract the preparation.
After the contraction induced by KCl had reached plateau, the concentration-response relationship for the test compound was determined by means of cumulative addition.
The relaxation response of the test compounds was expressed as the percent inhibition of the contraction induced by KCl, and the IC₅₀ value, which is a concentration required for inhibiting the contraction induced by KCl to an extent of 50%, was calculated by the Probit method from the concentration-response curve.
Compound `N#CNC(=NCc1cccc(OCc2ccccc2)c1)c1cccnc1` [(26), N-cyano-N'-(3-benzyloxybenzyl)-3-pyridinecarboximidamide] returned an IC50 of 23 µM.

Turning to `N#CN=C(NCCc1ccccc1)c1ccc(Cl)nc1` [(53), N-cyano-N'-(2-phenylethyl)-3-(6-chloropyridine)carboximidamide], the IC50 turned out to be 77 µM.

Compound `N#CNC(=NCc1ccc(Cl)c(Cl)c1)c1cccnc1` [(24), N-cyano-N'-(3,4-dichlorobenzyl)-3-pyridinecarboximidamide] showed an IC50 of 21 µM.

As for `CC(C)(C)CN=C(NC#N)c1ccccn1` [(2), N-cyano-N'-(2,2-dimethylpropyl)-2-pyridinecarboximidamide], the IC50 was 60 µM.

`COc1ccc(N=C(NC#N)c2ccccn2)cc1` [(5), N-cyano-N'-(4-methoxyphenyl)-2-pyridinecarboximidamide] displayed an IC50 of 65 µM.

Compound `N#CNC(=NCCc1ccc(NCc2ccccc2)cc1)c1cccnc1` [(31), N-cyano-N'-[2-(4-benzylaminophenyl)ethyl]-3-pyridinecarboximidamide] displayed an IC50 of 16 µM.

Regarding `Cc1ccc(CN=C(NC#N)c2ccccn2)cc1` [(6), N-cyano-N'-(4-methylbenzyl)-2-pyridinecarboximidamide], the IC50 was found to be 51 µM.

`N#CNC(=NCCCc1ccccc1)c1cccnc1` [(33), N-cyano-N'-(3-phenylpropyl)-3-pyridinecarboximidamide] came in with an IC50 of 95 µM.

With `Cc1ccc(N=C(NC#N)c2cccnc2)cc1` [(16), N-cyano-N'-(4-methylphenyl)-3-pyridinecarboximidamide], inhibition was half-maximal at 17 µM (IC50).

In turn, `COc1ccccc1CCN=C(NC#N)c1cccnc1` [(28), N-cyano-N'-[2-(2-methoxyphenyl)ethyl]-3-pyridinecarboximidamide] showed a concentration for half-maximal inhibition (IC50) of 70 µM.

As to `N#CN=C(N)c1ccncc1` [N-cyano-4-pyridine-carboxyimidamide, reference compound], the midpoint of inhibition, the IC50, lay at 180 µM.

As to `Cc1ccc(CCN=C(NC#N)c2ccccn2)cc1` [(9), N-cyano-N'-[2-(4-methylphenyl)ethyl]-2-pyridinecarboximidamide], the IC50 came to 72 µM.

In the case of `N#CNC(=NCCC(c1ccccc1)c1ccccc1)c1cccnc1` [(37), N-cyano-N'-(3,3-diphenylpropyl)-3-pyridinecarboximidamide], it took 28 µM to reach half-maximal inhibition (IC50).

`N#CNC(=NCCc1ccc(Cl)cc1)c1ccccn1` [(10), N-cyano-N'-[2-(4-chlorophenyl)ethyl]-2-pyridinecarboximidamide] registered an IC50 of 40 µM.

`COc1ccccc1CCN=C(NC#N)c1ccncc1` [(48), N-cyano-N'-[2-(2-methoxyphenyl)ethyl]-4-pyridinecarboximidamide] returned a concentration for half-maximal inhibition (IC50) of 73 µM.

Compound `COc1ccc(CN=C(NC#N)c2cccnc2)cc1` [(19), N-cyano-N'-(4-methoxybenzyl)-3-pyridinecarboximidamide] displayed an IC50 of 37 µM.

`N#CNC(=NCC(O[N+](=O)[O-])c1ccc([N+](=O)[O-])cc1)c1ccncc1` (stereo not shown) [(50), N-cyano-N'-[2-(4-nitrophenyl)-2-nitroxyethyl]-4-pyridinecarboximidamide] had an IC50 of 14 µM.

Turning to `N#CNC(=NC(c1ccccc1)c1ccccc1)c1cccnc1` [(34), N-cyano-N'-diphenylmethyl-3-pyridinecarboximidamide], the IC50 was 38 µM.

In turn, `N#CNC(=NCc1ccc(Cl)cc1)c1ccccn1` [(7), N-cyano-N'-(4-chlorobenzyl)-2-pyridinecarboximidamide] had a half-inhibitory concentration (IC50) of 23 µM.

Consider `CC(N=C(NC#N)c1ccccn1)C(C)(C)C` (stereo not shown) [(3), N-cyano-N'-(1,2,2-trimethylpropyl)-2-pyridinecarboximidamide], for which the IC50 turned out to be 49 µM.

With `CC(N=C(NC#N)c1ccncc1)C(O[N+](=O)[O-])c1ccc([N+](=O)[O-])cc1` (stereo not shown) [(51), N-cyano-N'-[1-methyl-2-(4-nitrophenyl)-2-nitroxyethyl]-4-pyridinecarboximidamide], the IC50 came out at 13 µM.

Take `N#CNC(=NCCSc1ccccc1)c1ccncc1` [(49), N-cyano-N'-(2-phenylthioethyl)-4-pyridinecarboximidamide]: the IC50 worked out at 62 µM.

`N#CNC(=NCc1cc(C(F)(F)F)cc(C(F)(F)F)c1)c1cccnc1` [(25), N-cyano-N'-[3,5-bis(trifluoromethyl)benzyl]-3-pyridinecarboximidamide] showed an IC50 of 24 µM.

With `N#CNC(=NCc1ccc([N+](=O)[O-])cc1)c1cccnc1` [(23), N-cyano-N'-(4-nitrobenzyl)-3-pyridinecarboximidamide], the half-inhibitory concentration (IC50) was found to be 98 µM.

The compound `N#CNC(=NCC(c1ccccc1)c1ccccc1)c1cccnc1` [(36), N-cyano-N'-(2,2-diphenylethyl)-3-pyridinecarboximidamide] came in with an IC50 of 16 µM.

As to `N#CNC(=NC(Cc1ccccc1)c1ccccc1)c1cccnc1` (stereo not shown) [(35), N-cyano-N'-(1,2-diphenylethyl)-3-pyridinecarboximidamide], half-maximal inhibition (IC50) required 18 µM.

In turn, `N#CNC(=NCC(OCc1ccccc1)c1ccccc1)c1cccnc1` (stereo not shown) [Compound (38), N-cyano-N'-(2-benzyloxy-2-phenylethyl)-3-pyridinecarboximidamide] returned an IC50 of 68 µM.

Turning to `COc1ccc(NC(=NC#N)c2cccnc2)c(OC)n1` [(40), N-cyano-N'-3-(2,6-dimethoxypyridine)-3-pyridinecarboximidamide], half-maximal inhibition (IC50) required 40 µM.

The compound `N#CNC(=NCc1ccc(C(F)(F)F)cc1)c1cccnc1` [(21), N-cyano-N'-[4-(trifluoromethyl)benzyl]-3-pyridinecarboximidamide] displayed an IC50 of 70 µM.

For `N#CNC(=NCCCO[N+](=O)[O-])c1cccnc1` [(14), N-cyano-N'-(3-nitroxypropyl)-3-pyridinecarboximidamide], 20 µM corresponded to half-maximal inhibition (IC50).

As to `N#CNC(=NCc1ccc(Cl)c(Cl)c1)c1ccncc1` [(44), N-cyano-N'-(3,4-dichlorobenzyl)-4-pyridinecarboximidamide], the IC50 amounted to 19 µM.

Consider `N#CNC(=Nc1ccccc1)c1ccccn1` [(4), N-cyano-N'-phenyl-2-pyridinecarboximidamide], for which the IC50 worked out at 31 µM.

For `CSc1ccc(CN=C(NC#N)c2ccncc2)cc1` [(45), N-cyano-N'-(4-methylthiobenzyl)-4-pyridinecarboximidamide], the IC50 came out at 49 µM.

Compound `N#CNC(=Nc1ccccc1)c1ccncc1` [(43), N-cyano-N'-phenyl-4-pyridinecarboximidamide] returned an IC50 of 52 µM.

`CC(C)(C)CCN=C(NC#N)c1cccnc1` [(15), N-cyano-N'-(3,3-dimethylbutyl)-3-pyridinecarboximidamide] gave an IC50 of 95 µM.

For `N#CNC(=NCCc1ccc(Cl)cc1)c1ccncc1` [(47), N-cyano-N'-[2-(4-chlorophenyl)ethyl]-4-pyridinecarboximidamide], the IC50 is 40 µM.

With `N#CNC(=NCC(O[N+](=O)[O-])c1ccc([N+](=O)[O-])cc1)c1cccnc1` (stereo not shown) [(32), N-cyano-N'-[2-(4-nitrophenyl)-2-nitroxyethyl]-3-pyridinecarboximidamide], 78 µM corresponded to half-maximal inhibition (IC50).

In the case of `N#CN=C(NCCO[N+](=O)[O-])c1ccc(Cl)nc1` [(52), N-cyano-N'-(2-nitroxyethyl)-3-(6-chloropyridine)carboximidamide], the IC50 was found to be 11 µM.

Compound `N#CNC(=NCc1cccc(OCc2ccccc2)c1)c1ccncc1` [(46), N-cyano-N'-(3-benzyloxybenzyl)-4-pyridinecarboximidamide] gave an IC50 of 30 µM.

Regarding `N#CNC(=NCc1ccc(C(F)(F)F)cc1)c1ccccn1` [(8), N-cyano-N'-[4-(trifluoromethyl)benzyl]-2-pyridinecarboximidamide], the IC50 amounted to 57 µM.

As for `N#CNC(=NCCc1ccc(Cl)cc1)c1cccnc1` [(30), N-cyano-N'-[2-(4-chlorophenyl)ethyl]-3-pyridinecarboximidamide], half-maximal inhibition (IC50) required 43 µM.

In turn, `CN(C)c1ccc(CN=C(NC#N)c2cccnc2)cc1` [Compound (20), N-cyano-N'-(4-dimethylaminobenzyl)-3-pyridinecarboximidamide] returned an IC50 of 78 µM.

In the case of `Cc1ccc(CN=C(NC#N)c2cccnc2)cc1` [(18), N-cyano-N'-(4-methylbenzyl)-3-pyridinecarboximidamide], it took 22 µM to reach half-maximal inhibition (IC50).

For `N#CN=C(N)c1cccnc1` [N-cyano-3-pyridine-carboxyimidamide, reference compound], the IC50 worked out at 40000 µM.

Consider `CC(N=C(NC#N)c1ccccn1)C(O)c1ccccc1` (stereo not shown) [(11), N-cyano-N'-(2-hydroxy-1-methyl-2-phenylethyl)-2-pyridinecarboximidamide], for which the IC50 was 12 µM.

In turn, `N#CNC(=NCc1cccs1)c1ccccn1` [(12), N-cyano-N'-(2-thienylmethyl)-2-pyridinecarboximidamide] had an IC50 of 24 µM.

In the case of `N#CNC(=NCc1ccc(Cl)cc1)c1cccnc1` [(22), N-cyano-N'-(4-chlorobenzyl)-3-pyridinecarboximidamide], inhibition was half-maximal at 22 µM (IC50).

Take `N#CNC(=NCCc1ccc(OCc2ccccc2)c(OCc2ccccc2)c1)c1cccnc1` [(39), N-cyano-N'-[2-(3,4-dibenzyloxyphenyl)ethyl]-3-pyridinecarboximidamide]: the IC50 was found to be 48 µM.

Turning to `N#CNC(=NCCCO[N+](=O)[O-])c1ccncc1` [(42), N-cyano-N'-(3-nitroxypropyl)-4-pyridinecarboximidamide], the IC50 came to 20 µM.
